TGI and GI50 data for 12 compounds are collected here from PubChem BioAssay (NCI).

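All cell lines were grown in 96-well plates and treated with compound for 48 hours. GI50 marks 50% less growth. Definition used: TGI = concentration required for complete inhibition of growth.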 Some results are limits rather than exact numbers.

Among the test systems are NCI-H522 lung; OVCAR-3 ovarian; MDA-MB-231 breast; SN12C renal; OVCAR-8 ovarian; SK-MEL-28 melanoma; A549 NSCLC; EKVX NSCLC; HOP-92 NSCLC; SF-295 CNS; PC-3 prostate; NCI/ADR-RES ovarian; BT-549 breast.
Holding throughout (test): NCI anticancer screen, dose series, 48 h

On to `CC(=O)N1N=C(c2ccccc2Nc2ccccc2C2=NN(C(C)=O)C(c3ccccc3)O2)OC1c1ccccc1` (stereo unspecified), for which the TGI in the assay on NCI-H522 lung, in the assay on OVCAR-3 ovarian, in the assay on MDA-MB-231 breast, with SN12C renal, in the assay on OVCAR-8 ovarian and in the assay on SK-MEL-28 melanoma was over 100 µM each time. Further, the TGI in the assay on A549 NSCLC, in the assay on EKVX NSCLC, in the assay on HOP-92 NSCLC, with SF-295 CNS, with PC-3 prostate and in the assay on NCI/ADR-RES ovarian was over 100 µM throughout. In the assay on BT-549 breast, this compound came in with a TGI of over 100 µM.
Consider `CCOC(=O)C1=COC(C)(C)CC1=O`, for which the TGI in the assay with NCI-H522 lung, with OVCAR-3 ovarian, in the assay on MDA-MB-231 breast, in the assay on SN12C renal, with OVCAR-8 ovarian and with SK-MEL-28 melanoma was over 100 µM throughout. Further, the TGI in the assay with A549 NSCLC, in the assay with EKVX NSCLC, in the assay on SF-295 CNS, in the assay on PC-3 prostate, in the assay on NCI/ADR-RES ovarian and with BT-549 breast was over 100 µM in each case.
With `COc1ccc(N2C(=O)C(C#N)=C(SC)C(C#N)C2=O)cc1` (stereo unspecified), the TGI in the assay on NCI-H522 lung, in the assay with MDA-MB-231 breast, in the assay on SN12C renal, with OVCAR-8 ovarian, in the assay on A549 NSCLC and with EKVX NSCLC was over 100 µM each time. The TGI in the assay with HOP-92 NSCLC, in the assay with SF-295 CNS, in the assay on PC-3 prostate, in the assay with NCI/ADR-RES ovarian and in the assay with BT-549 breast was over 100 µM in each case.
For `Nc1nc(NNc2ccccc2F)cc(=O)[nH]1`, the TGI with OVCAR-3 ovarian, in the assay on MDA-MB-231 breast, with SN12C renal, in the assay with OVCAR-8 ovarian, in the assay on SK-MEL-28 melanoma and in the assay on A549 NSCLC was over 100 µM throughout. The TGI in the assay on EKVX NSCLC, with SF-295 CNS, with PC-3 prostate, with NCI/ADR-RES ovarian and in the assay with BT-549 breast was over 100 µM each time.
Regarding `CC1=C(S(=O)c2ccc(C)cc2)CCC2(CCCCO2)O1` (stereo unspecified), the TGI with NCI-H522 lung, in the assay with OVCAR-3 ovarian, in the assay on MDA-MB-231 breast, in the assay on SN12C renal, in the assay with OVCAR-8 ovarian and with SK-MEL-28 melanoma was over 100 µM throughout. Besides, the TGI in the assay with EKVX NSCLC, in the assay with SF-295 CNS, in the assay with PC-3 prostate, with NCI/ADR-RES ovarian and in the assay with BT-549 breast was over 100 µM each time.
As to `O=C(Nc1ccc(Cl)cc1Cl)c1cc2nc3ccccc3c(=O)n2c2ccccc12`, the TGI in the assay on NCI-H522 lung, in the assay on OVCAR-3 ovarian, with MDA-MB-231 breast, in the assay with OVCAR-8 ovarian, with SK-MEL-28 melanoma and in the assay with A549 NSCLC was over 10 µM each time. In addition, the TGI with EKVX NSCLC, in the assay on HOP-92 NSCLC, in the assay on SF-295 CNS, in the assay on PC-3 prostate, in the assay on NCI/ADR-RES ovarian and in the assay with BT-549 breast was over 10 µM throughout.
Take `Oc1ccc(NCc2cc(O)ccc2O)cc1`: the TGI in the assay with OVCAR-3 ovarian is 32 µM; in the assay on MDA-MB-231 breast, 29.2 µM; in the assay with SN12C renal, 39.3 µM; in the assay on OVCAR-8 ovarian, over 100 µM; in the assay on SK-MEL-28 melanoma it was 45.7 µM; with A549 NSCLC it was over 100 µM. Further, the TGI was found to be 31.2 µM with EKVX NSCLC; 31.5 µM in the assay with HOP-92 NSCLC; 38.3 µM in the assay with SF-295 CNS; 28.4 µM in the assay with PC-3 prostate; 51.3 µM in the assay with NCI/ADR-RES ovarian; 25.8 µM in the assay with BT-549 breast.
For the compound `Cn1c2c(c3ccccc31)CC(=O)N1CCCC(C1)CC21OCCO1` (stereo unspecified), the TGI in the assay with OVCAR-3 ovarian, in the assay on MDA-MB-231 breast, with SN12C renal, in the assay on OVCAR-8 ovarian, in the assay with SK-MEL-28 melanoma and in the assay with A549 NSCLC was over 100 µM throughout. Further, the TGI with EKVX NSCLC, in the assay with HOP-92 NSCLC, in the assay on SF-295 CNS, with PC-3 prostate, in the assay on NCI/ADR-RES ovarian and in the assay with BT-549 breast was over 100 µM each time.
For `O=C1C=Cc2c1csc2Br`, the TGI with NCI-H522 lung is 38.4 µM; in the assay on OVCAR-3 ovarian it was over 100 µM; in the assay on MDA-MB-231 breast, over 100 µM; with SN12C renal, over 100 µM; with OVCAR-8 ovarian it was over 100 µM; in the assay with SK-MEL-28 melanoma, over 100 µM. Besides, the TGI with A549 NSCLC, in the assay with EKVX NSCLC, in the assay with SF-295 CNS, in the assay on PC-3 prostate, with NCI/ADR-RES ovarian and in the assay on BT-549 breast was over 100 µM throughout.
On to `CCCC1=NC(C(F)(F)F)(C(F)(F)F)N=C(N2CCOCC2)O1`, for which the TGI in the assay with OVCAR-3 ovarian, in the assay on MDA-MB-231 breast, with SN12C renal, with OVCAR-8 ovarian, in the assay with SK-MEL-28 melanoma and with A549 NSCLC was over 100 µM in each case. Moreover, the TGI with EKVX NSCLC, with HOP-92 NSCLC, in the assay with SF-295 CNS, with PC-3 prostate, in the assay on NCI/ADR-RES ovarian and in the assay with BT-549 breast was over 100 µM each time.
On to `O=C(/C=C/c1cc(F)ccc1F)OCCc1ccccc1`, for which the TGI in the assay on NCI-H522 lung, with MDA-MB-231 breast, with OVCAR-8 ovarian, in the assay on SK-MEL-28 melanoma, in the assay with A549 NSCLC and with EKVX NSCLC was over 100 µM each time. Also, the TGI in the assay with HOP-92 NSCLC, in the assay with PC-3 prostate, with NCI/ADR-RES ovarian and in the assay on BT-549 breast was over 100 µM throughout.
As for `O=CN(O)CC(=O)O.[Ni]`, in the assay with NCI-H522 lung, the GI50 was over 100 µM. Also, the TGI in the assay with NCI-H522 lung, with OVCAR-3 ovarian, in the assay on MDA-MB-231 breast, in the assay on SN12C renal, in the assay with OVCAR-8 ovarian and in the assay with SK-MEL-28 melanoma was over 100 µM throughout. Moreover, the TGI with EKVX NSCLC, with HOP-92 NSCLC, in the assay with SF-295 CNS, with PC-3 prostate, in the assay on NCI/ADR-RES ovarian and with BT-549 breast was over 100 µM in each case.
